Tests used:
MCF7 = assay: NCI IVCLSP growth inhibition (SRB), MCF7; format: cell-based, human; settings: 48 h drug incubation
Experimental: (§1) FIG. 1 presents nine compounds that were tested using the National Cancer Institute (NCI) 60 human tumor cell lines. The cells lines, which represent leukemia, melanoma, and cancers of the lung, colon, brain, ovary, breast, prostate, and kidney, are listed in Table 1.
(§2) Compounds 1-9 were tested according to the NCI Developmental Therapeutics Program (DTP) In Vitro Cell Line Screening Project (IVCLSP). […] Methodology for testing under the IVCLSP is as follows: The human tumor cell lines of the cancer screening panel are grown in RPMI 1640 medium containing 5% fetal bovine serum and 2 mM L-glutamine. […]
(§3) Following drug addition, the plates are incubated for an additional 48 h at 37° C., 5% CO2, 95% air, and 100% relative humidity. […] Bound stain is subsequently solubilized with 10 mM trizma base, and the absorbance is read on an automated plate reader at a wavelength of 515 nm. […] Using the seven absorbance measurements [time zero, (Tz), control growth, (C), and test growth in the presence of drug at the five concentration levels (Ti)], the percentage growth is calculated at each of the drug concentrations levels. Percentage growth inhibition is calculated as: [(Ti−Tz)/(C−Tz)]×100 for concentrations for which Ti>/=Tz [(Ti−Tz)/Tz]×100 for concentrations for which Ti<Tz.
(§4) Three dose response parameters are calculated for each experimental agent. […]

[1] = system: HL-60 human promyelocytic leukemia cells; assay: Flow cytometric cell cycle phase distribution; format: cell-based; settings: 24 hours treatment
Experimental: Flow cytometric analyses were used to assess the effects of Compound 1 and various antimicrotubule drugs on the cell cycle phase distributions of HL-60 human promyelocytic leukemia cells. The percentage of cells in the G2/M phases were increased approximately 2-fold by treatment of the cells for 24 hours with either TAXOL (paclitaxel), vinblastine, colchicine, or Compound 1.

MDA-MB-231/ATCC = assay: NCI IVCLSP growth inhibition (SRB), MDA-MB-231/ATCC; format: cell-based, human; settings: 48 h drug incubation
Experimental: as §1, §2, §3, §4

SK-OV-3 = assay: NCI IVCLSP growth inhibition (SRB), SK-OV-3; format: cell-based, human; settings: 48 h drug incubation
Experimental: as §1, §2, §3, §4

[2] = system: A-10 rat smooth muscle cells; assay: Microtubule structure, indirect immunofluorescence, A-10 cells; format: cell-based; settings: 24 hours; 625 nM TAXOL, 167 nM vinblastine, 900 nM Compound 1
Experimental: Because of the morphological effects of Compound 1 on cultured cells and the NCI COMPARE analysis results described above, the effects of vinblastine, TAXOL (paclitaxel), and Compound 1 on microtubule structure were examined. For these studies, A-10 rat smooth muscle cells were used since they grow as flat monolayers that are amenable to imaging. The A-10 cells were treated for 24 hours with EtOH (control), 625 nM TAXOL (paclitaxel), 167 nM vinblastine, and 900 nM of Compound 1. Microtubules were then visualized by indirect immunofluoresence staining with B-tubulin antibodies. FIGS. 2a-d present representative fields for the control, TAXOL (paclitaxel), vinblastine, and Compound 1 (“149”), respectively. None of these compounds affected the morphology of stress fibers composed of microfilaments.

WAF1 = assay: Western blot, WAF1 expression in MCF-7 cells; format: cell-based, human; settings: 24 hours, various concentrations
Experimental: To further characterize the cell cycle effects of Compound 1 on human tumor cells, MCF-7 cells were treated for 24 hours with various concentrations of Compound 1, vinblastine, or TAXOL (paclitaxel). Cells were then harvested, lysed, and analyzed for levels of expression of p53 and WAF1 by Western Blot analyses. […] Compound 1 is identified as “149” in these figures. […] None of these treatments affected the expression of bcl-2 or P-tubulin in the MCF-7 cells.

NCI-H460 = assay: NCI IVCLSP growth inhibition (SRB), NCI-H460; format: cell-based, human; settings: 48 h drug incubation
Experimental: as §1, §2, §3, §4

K-562 = assay: NCI IVCLSP growth inhibition (SRB), K-562; format: cell-based, human; settings: 48 h drug incubation
Experimental: as §1, §2, §3, §4

HOP-92 = assay: NCI IVCLSP growth inhibition (SRB), HOP-92; format: cell-based, human; settings: 48 h drug incubation
Experimental: as §1, §2, §3, §4

RXF 393 = assay: NCI IVCLSP growth inhibition (SRB), RXF 393; format: cell-based, human; settings: 48 h drug incubation
Experimental: as §1, §2, §3, §4

DU-145 = assay: NCI IVCLSP growth inhibition (SRB), DU-145; format: cell-based, human; settings: 48 h drug incubation
Experimental: as §1, §2, §3, §4

M14 = assay: NCI IVCLSP growth inhibition (SRB), M14; format: cell-based, human; settings: 48 h drug incubation
Experimental: as §1, §2, §3, §4

OVCAR-4 = assay: NCI IVCLSP growth inhibition (SRB), OVCAR-4; format: cell-based, human; settings: 48 h drug incubation
Experimental: as §1, §2, §3, §4

KM12 = assay: NCI IVCLSP growth inhibition (SRB), KM12; format: cell-based, human; settings: 48 h drug incubation
Experimental: as §1, §2, §3, §4

In the case of `COc1cc(CCc2cn(Cc3ccccc3)c3nc(N)nc(C)c23)cc(OC)c1OC` [Compound 1], the GI50 (MCF7) is reported as 118 nM, the “increase of the percentage of cells in the G2/M phases” value ([1]; HL-60) is reported as “approximately 2 fold” and the “cell cycle distribution, G2/M” value ([1]; percentage of HL-60 cells) is reported as 9.7 ± 0.4. The “cell cycle distribution, G9/G1” value ([1]; percentage of HL-60 cells) was 80.0 ± 2.4, the “cell cycle distribution, S” value ([1]; percentage of HL-60 cells) was 10.3 ± 2.0 and the GI50 (MDA-MB-231/ATCC) was 595 nM. The GI50 (SK-OV-3) was 506 nM, the “effect on microtubule structure (in words)” value [2] was “caused dose-dependent losses of microtubules” and the “level of expression of WAF1 (in words)” value (WAF1) was “induced the expression”. It also gave a GI50 (NCI-H460) of 162 nM, a GI50 (K-562) of 84.6 nM and a GI50 (HOP-92) of 467 nM. It also gave a GI50 (RXF 393) of 134 nM, a GI50 (DU-145) of 224 nM and a GI50 (M14) of 77 nM. The GI50 (OVCAR-4) was 821 nM and the GI50 (KM12) was 194 nM.

Reference: US8501752B2, “Methods for treating cancer and other pathological proliferating disorders by inhibiting mitosis using pyrrolo[2,3-d]pyrimidines” (Duquesne University of the Holy Ghost, priority 2005, dated 2013)
